Assay results published in publication PMC4434909, “In vitro properties of designed antimicrobial peptides that exhibit potent antipneumococcal activity and produces synergism in combination with penicillin” (Scientific Reports, 2015).
“Also recorded” adds a separate entry of the source. Like-named read-outs stand apart in the source and are kept apart here. Where no end group is shown, it is not given here.

Tests used:
[1] = system: penicillin-resistant Streptococcus pneumoniae (PRSP); assay type: cell-based; conditions: for MIC, PRSP: MIC range over 20 PRSP isolates, CLSI broth microdilution, CAMHB with 5% laked horse blood, 18–24 hrs 37°C 5% CO2, peptides 1.96–250 μg/ml, three independent experiments; for EP %, PRSP: effective percentage: proportion of isolates inhibited within the MIC range
From the text: (§1) All bacterial strains were obtained from Department of Medical Microbiology, University of Malaya. Clinical isolates were previously obtained from University of Malaya Medical Centre and maintained in the laboratory. Sheep blood agar was used for pneumococcal cultivation purpose. Nutrient agar was used for cultivating E. coli ATCC 25922, S. aureus ATCC 25923, and P. aeruginosa ATCC 15442, Acinetobacter baumanii ATCC 15308, and one clinical isolate for each MRSA, E. cloacae, Citrobacter spp., and K. pneumoniae. For antimicrobial testing, Mueller-Hinton agar (MHA) and cationically-adjusted MHB (CAMHB) were prepared according to the Clinical and Laboratory Standard Institute guidelines. MHA for S. pneumoniae was supplemented with 5% (v/v) defibrinated sheep blood and 5% laked horse blood for CAMHB. All bacterial cultures were stored in multiple vials in brain heart infusion broth supplemented with 10% (v/v) glycerol at −80°C to avoid repeated freeze-thawed cycles on the cells. All freeze-stocked strains were passaged twice prior to experimentation.
(§2) Procedures were performed to determine the MIC of peptides according to the CLSI guidelines[21] against 60 pneumococcal isolates which consisted of 20 isolates each for PRSP, PISP, and PSSP. Strains were grown for 18–24 hrs at 37°C under 5% CO2. Direct suspension of the colonies were made in CAMHB and adjusted to OD625 0.08–0.1 which corresponds to 1 ~ 2 × 10^8 CFU/ml followed by serial ten-fold dilutions to give 1 × 10^6 CFU/ml. Fifty microliters of bacterial suspension was then aliquoted to 96-well round bottom microtiter plates containing equal volume of serially diluted peptides to give final concentrations of peptides encompassing the range of 1.96–250 μg/ml. […] The plates were incubated for 18–24 hrs at 37°C under 5% CO2. MIC was read as the concentration of peptide producing complete inhibition on the visible growth of the test organism. Results were pooled from three independent experiments. MIC range was defined as the range of concentrations where the peptides produce detectable antimicrobial activity. Effective percentage (EP) was the proportion of pneumococcal isolates inhibited within the MIC range. Since the isolates tested were obtained prior to 2008 where major revision in antibiotic susceptibility breakpoints were introduced, thus the pneumococci were defined according to the PEN susceptibility breakpoint (prior 2008) which corresponds to the PEN (oral penicillin V) breakpoint of the revised criteria.

[2] = system: MRSA; assay type: cell-based, methicillin-resistant S. aureus
From the text: as §1, §2
(§3) The broad spectrum antibacterial activity of the peptides against a panel of eight clinically important bacteria was also determined, this includes S. aureus ATCC 25923, E. coli ATCC 25922, P. aeruginosa ATCC 15442, A. baumanii ATCC 15308, and one clinical isolate each for MRSA, E. cloacae, Citrobacter spp., and K. pneumoniae.

[3] = system: E. cloaceae; assay type: cell-based, E. cloacae; conditions: Gram-negative, clinical isolate; broth microdilution, CAMHB, peptides 1.96–250 μg/ml
From the text: as §1, §2, §3

[4] = system: K. pneumoniae; assay type: cell-based, Klebsiella pneumoniae; conditions: Gram-negative, clinical isolate; broth microdilution, CAMHB, peptides 1.96–250 μg/ml
From the text: as §1, §2, §3

[5] = system: Citrobacter spp.; assay type: cell-based; conditions: Gram-negative, clinical isolate; broth microdilution, CAMHB, peptides 1.96–250 μg/ml
From the text: as §1, §2, §3

[6] = system: E. coli ATCC 25922; assay type: cell-based
From the text: as §1, §2, §3

[7] = system: P. aeruginosa ATCC 15442; assay type: cell-based
From the text: as §1, §2, §3

[8] = system: S. aureus ATCC 25923; assay type: cell-based
From the text: as §1, §2, §3

[9] = system: multiple gram-positive and gram-negative bacteria; assay type: cell-based; conditions: range: DM3 against seven bacteria; DM4 and DM5 apart from higher MICs against E. cloaceae, K. pneumoniae, S. aureus
From the text: as §1, §2, §3

[10] = system: PISP; assay type: cell-based, Streptococcus pneumoniae
Protocol: (§4) This assay was performed to evaluate the killing kinetics of peptides. One PRSP, PISP, and PSSP isolate were each grown and prepared to 5 × 10^6 CFU/ml. Each isolate in CAMHB was challenged with peptides at two times the respective MIC values. At the indicated time intervals (0, 30, 60, 120, 150, 180, 210, and 240 min; “0” indicate pretreatment), 10 μl of suspension was removed and immediately serially diluted in cold phosphate-buffered saline to arrest further reaction before spread-plated on MHA to obtain viable colony counts. The percentage cell recovered was calculated by dividing the surviving CFU of the treated cells over the surviving CFU of the untreated control cells at the respective time points. Results were pooled from three independent experiments and expressed as mean ± standard deviation (SD).

[11] = system: PRSP; assay type: cell-based, Streptococcus pneumoniae
Protocol: as §4

[12] = system: PRSP; assay: Transmission electron microscopy of treated pneumococci; assay type: cell-based, Streptococcus pneumoniae; conditions: PRSP 5 × 10^10 CFU/ml, peptides 8 mg/ml, four hours 37°C 5% CO2
Protocol: An overnight culture of PRSP on sheep blood agar was passaged twice and directly suspended in CAMHB. As sample for TEM required high cell density of about 10^8 to 10^10 to be viewable, the bacteria was prepared to 5 × 10^10 CFU/ml and treated with supra-concentration of peptides at 8 mg/ml for four hours at 37°C under 5% CO2. Cells treated with only water was served as the untreated control. For TEM sample preparation, standard protocol provided by the Electron Microscopic Unit, Faculty of Medicine, University of Malaya was followed. The cells were washed twice with CAMHB before overnight fixation in 4% (v/v) glutaraldehyde, two times postfix washes with cacodylate buffer, incubate, two hours incubation with osmium tetroxide buffer (OsO4 1: 1 cacodylate), and washed twice with cacodylate buffer before overnight incubation in the same buffer. Next, the samples were washed twice with double distilled water, 10 min of uranyl acetate incubation, and washed twice with double distilled water before subjected to dehydration by gradual ethanol series: 35% for 10 min, 50% for 10 min, 70% for 10 min, 95% for 15 min, and three rounds of absolute (100%) ethanol for 15 min. Following this, samples were incubated with two rounds of propylene oxide for 15 min, propylene oxide 1:1 Epon for 1 hr, propylene oxide 1:3 Epon for 2 hrs, overnight incubation with Epon, embedded in Agar 100 resin at 37°C for five hours, and maintained in 60°C until viewing. Ultrathin sectioning were prepared on Reichert Ultramicrotome, copper grids 3.05 mm (300 square mesh) (Agar Scientific), and stained with ethanol-based uranyl acetate and lead citrate for 5 min. The prepared samples were viewed with Leo Libra 120 under standard operating conditions.

[13] = Gram-positive, clinical isolate, broth microdilution, CAMHB, peptides 1.96–250 μg/ml
[14] = Gram-negative, broth microdilution, CAMHB, peptides 1.96–250 μg/ml
[15] = Gram-positive, broth microdilution, CAMHB, peptides 1.96–250 μg/ml
[16] = 30 min post treatment, 2× MIC, 5 × 10^6 CFU/ml in CAMHB, plate count, relative to untreated control

Row | Substance | MIC, PRSP [1] [µg/mL] | EP %, PRSP [1] | MIC, MRSA [2, 13] [µg/mL] | MIC, E. cloaceae [3] [µg/mL] | MIC, K. pneumoniae [4] [µg/mL] | MIC, Citrobacter spp. [5] [µg/mL] | MIC, E. coli ATCC 25922 [6, 14] [µg/mL] | MIC, P. aeruginosa ATCC 15442 [7, 14] [µg/mL] | MIC, S. aureus ATCC 25923 [8, 15] [µg/mL] | antibacterial MIC range over the bacterial panel [9] [µg/mL] | difference in killing kinetics over PEN, PISP ([10]; 30 min post treatment, 2× MIC) [%] | difference in killing kinetics over PEN, PRSP ([11]; 30 min post treatment, 2× MIC) [%] | changes in pneumococcal cell morphology (TEM) [12] | MIC, MRSA ([2]; methicillin-resistant) [µg/mL] | MIC, E. coli ATCC 25922 ([6]; ATCC 25922) [µg/mL] | MIC, P. aeruginosa ATCC 15442 ([7]; ATCC 15442) [µg/mL] | MIC, S. aureus ATCC 25923 ([8]; ATCC 25923) [µg/mL] | difference in killing kinetics over PEN, PISP [10]; 2 [%] | difference in killing kinetics over PEN, PRSP [11]; 2 [%] | other results
1 | GLFDIWKKWRWRR-NH2 [DM4] | 31.3 to 125 | (100.0) % | 62.5 | 250 | >250 | 31.3 | 62.5 | 31.3 | 62.5 | 31.3 to 62.5 | 57.8 | 39.0 | Loss of cell wall fragments |  |  |  |  |  |  | 
2 | GLFDIWKKLRWRR-NH2 [DM5] | 31.3 to 125 | (100.0) % |  | 125 | 250 | 31.3 |  |  |  | 31.3 to 62.5 |  |  | Loss of cell wall fragments; also recorded: formation of cytoplasmic-containing inclusion bodies | 62.5 | 31.3 | 31.3 | 125 | 58.5 | 38.1 | 
3 | GLFDIWKWWRWRR-NH2 [DM3] | 15.63 to 62.5 | (100.0) % |  | 31.3 | 62.5 | 15.63 |  |  |  | 7.81 to 62.5 |  |  | formation of cytoplasmic-containing inclusion bodies | 7.81 | 62.5 | 125 | 15.63 | 76.0 | 60.0 | 
4 | GLFDKWAWWRWRR-NH2 [DM1] | 31.3 to 125 | (100.0) % | 62.5 | 125 | >250 | 31.3 | 62.5 | 125 | 125 |  | 54.2 | 52.9 | formation of cytoplasmic-containing inclusion bodies |  |  |  |  |  |  | 
5 | GLFDIWAWWRWRR-NH2 [DM2] | 15.63 to 250 | (100.0) % |  | >250 | >250 | 62.5 |  |  |  |  |  |  | filamentous and stacked at one pole of the cell | 62.5 | 250 | >250 | 31.3 | 65.4 | 64.1 | CFU recovered, PISP [10, 16]: 12.4%; CFU recovered, PRSP [11, 16]: completely killed
